In article PMC2724708, “Adenosine Kinase of T. b. rhodesiense Identified as the Putative Target of 4-[5-(4-phenoxyphenyl)-2H-pyrazol-3-yl]morpholine Using Chemical Proteomics” (PLoS Neglected Tropical Diseases, 2009):
In brackets after ≈: the same amount, converted by molar mass.

What was measured:
[1] = test system: bloodstream-form T. b. brucei TbAK RNAi cells; assay: Drug sensitivity test (Alamar blue) on TbAK RNAi knock-down mutant; format: cell-based
Procedure: The construction of the T. b. brucei adenosine kinase gene knock-down mutant has been described recently. Expression of a stem-loop construct targeting TbAK was induced by addition of 10 µg/ml tetracycline to the medium. Down-regulation of TbAK expression was verified by Northern blotting. Parasites were cultivated and drug sensitivity was tested using the Alamar blue test. IC50 values were calculated by nonlinear fitting to the sigmoidal dose-response curve using Origin® software. The assays were performed in triplicates for at least four times.

T. b. rhodesiense = test system: T. b. rhodesiense; parameters: method as in PMID 17949068; conditions: in vitro, blood stage parasite; read-out: IC50 against blood stage T.b. rhodesiense; cited from earlier work
[2] = biological target: T1, glycosomal T. b. rhodesiense glyceraldehyde-3-phosphate dehydrogenase (TbrGAPDH) (Trypanosoma brucei brucei, UniProt P22512); assay: Thermal stability assay (CD spectroscopy) regarding TbrGAPDH; format: binding; conditions: for ∆Tm of TbrGAPDH: vs TbrGAPDH alone
T1 construct: made in house; host or cells: E. coli BL21(DE3), pET28a
T1 sequence (P22512 whole entry): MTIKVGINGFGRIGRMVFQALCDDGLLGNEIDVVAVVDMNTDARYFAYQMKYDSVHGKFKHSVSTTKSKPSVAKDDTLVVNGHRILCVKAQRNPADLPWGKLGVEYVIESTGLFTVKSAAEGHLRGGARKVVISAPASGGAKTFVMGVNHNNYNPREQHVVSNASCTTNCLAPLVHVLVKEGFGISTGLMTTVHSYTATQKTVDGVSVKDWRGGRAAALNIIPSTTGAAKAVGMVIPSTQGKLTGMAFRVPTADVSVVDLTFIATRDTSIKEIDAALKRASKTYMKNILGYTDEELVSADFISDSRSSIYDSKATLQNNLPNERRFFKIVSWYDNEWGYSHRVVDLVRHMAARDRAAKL
Procedure: Thermal unfolding of TbrGAPDH and TbrAK was studied by circular dichroism (CD) spectroscopy at 220 nm within the temperature range of 20–90°C using a heating rate of 40°C/h. […]
All measurements were done in a 0.5 mm cell and contained 0.1 %
(§1) DMSO and 2.5 mM EDTA to prevent enzyme activity. Thermal stability was analyzed in presence of 500 µM substrate to record the maximum stability limit, whereas compounds 1 to 5 were used at a concentration of 50 µM, being the highest concentration achievable for compound 2, to allow comparison of all compounds at the same concentration. For evaluation of the CD spectra, the buffer spectrum was subtracted from the protein CD spectrum. All thermal unfolding curves were fitted to a two-state model that had been published recently. The mean of three independent experiments are reported. […]

[3] = biological target: T2, adenosine kinase of T. b. rhodesiense (TbrAK) (Trypanosoma brucei rhodesiense, UniProt Q584S0); assay: HPLC activity assay for TbrAK; format: biochemical; conditions: for activity at 50 µM: 37°C, ADP/ATP ratio, read-out: TbrAK activity in presence of compound (% of activity without compound); for concentration dependence of the activation effect: range 1–750 µM, up to solubility limit
T2 sequence (Q584S0 1-345): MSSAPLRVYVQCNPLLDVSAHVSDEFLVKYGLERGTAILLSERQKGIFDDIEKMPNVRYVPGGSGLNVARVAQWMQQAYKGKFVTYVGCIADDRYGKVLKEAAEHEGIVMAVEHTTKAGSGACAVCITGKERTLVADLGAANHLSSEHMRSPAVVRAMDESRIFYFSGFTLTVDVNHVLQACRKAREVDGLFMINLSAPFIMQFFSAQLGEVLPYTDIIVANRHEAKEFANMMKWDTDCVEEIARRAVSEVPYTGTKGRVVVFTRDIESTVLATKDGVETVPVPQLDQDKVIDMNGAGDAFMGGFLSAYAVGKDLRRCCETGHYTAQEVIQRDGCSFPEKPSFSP
Procedure: TbrAK catalyzes the ATP-dependent phosphorylation of the 5′-hydroxyl moiety of adenosine to form AMP and ADP. The activity assay was based on HPLC separation of substrate and products (adenosine, AMP, ADP, and ATP). The mobile phase consisted of 35 mM KH2PO4, 6 mM tetrabutylammonium hydrogensulfate, (pH 7.0, adjusted with KOH), 125 mM EDTA, and 1% (v/v) acetonitrile. The separation was performed isocratically at a flow-rate of 1.5 ml/min and monitored at 254 nm. The standard reaction in 75 µl total volume containing 0.5 mM ATP, 0.5 mM adenosine, 0.5 mM MgCl2, 1% DMSO in buffer E1 (20 mM Hepes, 150 mM NaCl, pH 7.0) was started with the addition of 2 µg TbrAK (final concentration 0.7 µM) and incubated at 37°C for 10 min while shaking vigorously (600 rpm). […] All reactions were stopped by adding 75 µl mobile phase. 50 µl of the sample volume were injected for analysis and the resulting ADP/ATP ratios were calculated and used as a measure of activity. For comparative reasons the activity recorded in absence of compound was set to 100%. The mean of three independent measurements are reported.

[4] = parameters: method as in PMID 17949068; conditions: cited from earlier work
[5] = biological target: T2, adenosine kinase of T. b. rhodesiense (TbrAK); assay: Thermal stability assay (CD spectroscopy) regarding TbrAK; format: binding; conditions: for Tm of TbrAK: 13 µM TbrAK
Procedure: Thermal unfolding of TbrGAPDH and TbrAK was studied by circular dichroism (CD) spectroscopy at 220 nm within the temperature range of 20–90°C using a heating rate of 40°C/h.
as §1, with “TbrAK in buffer E1 (20 mM Hepes, 150 mM NaCl, pH 7.0) was used at 0.5 mg/ml (final concentration 13 µM). All measurements were done in a 0.5 mm cell and contained 0.1 % DMSO” for “DMSO”

[6] = biological target: T2, adenosine kinase of T. b. rhodesiense (TbrAK); assay: Radiometric assay for kinetic study of TbrAK
Procedure: (§2) Kinetic constants for adenosine phosphorylation by TbrAK were obtained by monitoring the conversion of [2-^3H]adenosine to [2-^3H]AMP. Reactions were executed at 37°C in a final volume of 30 µl containing 20 mM Hepes (pH 7.0), 50 mM NaCl, 167 µM ATP, 167 µM MgCl2, 0.34% BSA, and 0.34% DMSO. […] The concentration of [2-^3H]adenosine (0.1–12 µM) was chosen in consideration of Michaelis–Menten conditions for initial velocity measurements. The reaction was started by the addition of 1 ng (0.88 nM) TbrAK. The reactions were incubated and 5 µl aliquots were spotted on 5 mm diameter DE81-cellulose disks placed in a 96-well plate to stop the reaction. The disks were washed 3 times with 250 µl 5 mM ammonium formate, once with H2O, transferred to scintillation vials, and then soaked with 2 ml of a displacement solution (100 mM HCl, 200 mM KCl) and gently shaken for 1 minute to elute the phosphorylated products [9]. After adding 10 ml scintillation liquid, the samples were counted in scintillation counter. Km and Vmax with respect to adenosine and Ki for adenosine substrate-inhibition in absence and presence of compound 1 were determined by non-linear fit of the data to the substrate-inhibition model described elsewhere [10].

[7] = Solubility limit in the assay mixture; format: physicochemical; conditions: HPLC activity assay mixture (buffer E1 with 1% DMSO), 37 °C, pH 7, aqueous buffer, kinetic from dmso stock, read-out: solubility limiting concentration
[8] = substrate: Nc1ncnc2c1ncn2[C@@H]1O[C@H](CO)[C@@H](O)[C@H]1O; assay: purified protein, by the assay type; conditions: other: in absence of compound 1, 167 µM ATP; pH 7.0; 37.0 °C
Procedure: as §2

[9] = 50 µM compound, 0.7 µM TbrAK, 10 min

## c1ccc(Oc2ccc(-c3cc[nH]n3)cc2)cc1 [compound 5, 3-(4-phenoxyphenyl)-1H-pyrazole]
[1]
  IC50 difference between induced and non-induced TbAK RNAi cells: did not exhibit any IC50 difference
T. b. rhodesiense
  IC50: > 65 µM
[2]; compound at 50 µM
  Tm of TbrGAPDH: 46.7 ± 0.2 °C
[3]; [9]
  activity at 50 µM: 102 ± 2%
[3]
  concentration dependence of the activation effect: did not activate TbrAK
[4]; read-out: general toxicity IC50
  IC50: > 136 µM
[5]; compound at 50 µM
  Tm of TbrAK: 43.4±0.1 °C
[5]; read-out: ΔTm of TbrAK
  ΔTm at 50 µM: 0.3 °C

## Nc1ncnc2c1ncn2[C@@H]1O[C@H](CO)[C@@H](O)[C@H]1O [adenosine]
[6]
  Ki: 6.1 ± 1.4 µM
[5]; read-out: ΔTm of TbrAK
  ΔTm at 500 µM: 7.6 °C
[5]; substrate at 500 µM
  Tm of TbrAK: 50.7±0.2 °C

## Nc1ncnc2c1ncn2[C@@H]1O[C@H](COP(=O)(O)OP(=O)(O)OP(=O)(O)O)[C@@H](O)[C@H]1O [ATP, reference compound]
[5]; substrate at 500 µM
  Tm of TbrAK: 42.8±0.1 °C
[5]; substrate at 500 µM, vs apo TbrAK
  ΔTm of TbrAK: −0.3 °C

## c1ccc(Oc2ccc(-c3cc(N4CCNCC4)[nH]n3)cc2)cc1 [compound 4]
T. b. rhodesiense
  IC50: 1.1 µM
[7]
  solubility: 750 µM (≈ 240 µg/mL)
[2]; compound at 50 µM
  Tm of TbrGAPDH: 47.0 ± 0.1 °C
[3]; [9]
  activity at 50 µM: 109 ± 1%
[3]; 0.5 mM ATP, 0.5 mM adenosine, 0.7 µM TbrAK, read-out: EC50 of TbrAK activation (HPLC assay)
  EC50: > 750 µM
[3]; HPLC assay
  fold increase of EC50 relative to compound 1: at least 20 fold
[3]
  concentration dependence of the activation effect: concentration dependent
[4]
  cytotoxicity / general toxicity: increased general toxicity
[5]; compound at 50 µM
  Tm of TbrAK: 43.2±0.1 °C
[5]; read-out: ΔTm of TbrAK
  ΔTm at 50 µM: 0.1 °C

## O=CC(O)COP(=O)(O)O (racemic) [DL-GAP, DL-glyceraldehyde-3-phosphate, reference compound]
[2]; substrate at 500 µM
  Tm of TbrGAPDH: 50.0 ± 0.7 °C
  ∆Tm of TbrGAPDH: 2.4 °C

## Nc1ccc(Oc2ccc(-c3cc(N4CCOCC4)[nH]n3)cc2)cc1 [compound 2, 4-[4-(5-morpholine-4-yl-1H-pyrazol-3-yl)-phenoxy]phenylamine]
T. b. rhodesiense
  IC50: 17.7 µM
[7]
  solubility: ≤ 50 µM
[2]; compound at 50 µM
  Tm of TbrGAPDH: 47.0 ± 0.4 °C
[3]; [9]
  activity at 50 µM: 174 ± 5%
[3]; 10 min, pH 7, 50 µM compound, read-out: fold increase of TbrAK activity
  fold induction at 50 µM: 1.7
[3]
  concentration dependence of the activation effect: concentration dependent
[5]; compound at 50 µM
  Tm of TbrAK: 45.9±0.4 °C
[5]; read-out: ΔTm of TbrAK
  ΔTm at 50 µM: 2.8 °C

## NC(=O)c1ccc[n+]([C@@H]2O[C@H](COP(=O)([O-])OP(=O)(O)OC[C@H]3O[C@@H](n4cnc5c(N)ncnc54)[C@H](O)[C@@H]3O)[C@@H](O)[C@H]2O)c1 [NAD+, reference compound]
[2]; substrate at 500 µM
  Tm of TbrGAPDH: 55.6 ± 0.2 °C
  ∆Tm of TbrGAPDH: 8.0 °C

## Nc1ccc(-n2nc(-c3ccc(Oc4ccccc4)cc3)cc2N2CCOCC2)cc1 [compound 3, 4-[5-morpholine-4-yl-3-(4-phenoxyphenyl)-pyrazol-1-yl]phenylamine]
T. b. rhodesiense
  IC50: 10.3 µM
[2]; compound at 50 µM
  Tm of TbrGAPDH: 45.5 ± 0.6 °C
[3]; [9]
  activity at 50 µM: 110 ± 1%
[3]
  concentration dependence of the activation effect: did not activate TbrAK
[5]; compound at 50 µM
  Tm of TbrAK: 42.8±0.2 °C
[5]; read-out: ΔTm of TbrAK
  ΔTm at 50 µM: -0.3 °C

B1: adenosine kinase of T. b. rhodesiense (TbrAK) (Trypanosoma brucei brucei TREU927) (protein)
chain: MSSAPLRVYVQCNPLLDVSAHVSDEFLVKYGLERGTAILLSERQKGIFDDIEKMPNVRYVPGGSGLNVARVAQWMQQAYKGKFVTYVGCIADDRYGKVLKEAAEHEGIVMAVEHTTKAGSGACAVCITGKERTLVADLGAANHLSSEHMRSPAVVRAMDESRIFYFSGFTLTVDVNHVLQACRKAREVDGLFMINLSAPFIMQFFSAQLGEVLPYTDIIVANRHEAKEFANMMKWDTDCVEEIARRAVSEVPYTGTKGRVVVFTRDIESTVLATKDGVETVPVPQLDQDKVIDMNGAGDAFMGGFLSAYAVGKDLRRCCETGHYTAQEVIQRDGCSFPEKPSFSP
[8]
  Km: 0.99 ± 0.05 µM
